From paper PMC12677699, “Utilizing Proteolytic‐Resistant Nano‐Short Peptide Based on Naphthyl Tail‐Anchored to Combat Bacterial Infections” (Advanced Science, 2025)

Legend:
S. aureus ATCC 29213 = test: Drug resistance assay, 30 serial passages; assay type: cell-based, Staphylococcus aureus; conditions: S. aureus ATCC 29213, 30 successive passages at sub-MIC concentrations; gentamicin by day 17
Description: The potential resistance development of nano‐short peptides was evaluated through 30 serial passages of E. coli ATCC 25922 and S. aureus ATCC 29213 in sub‐MIC conditions,^[ [38] ^] using gentamicin as control.

E. coli ATCC 25922 = test: Live/dead staining, PI and SYTO 9; assay type: cell-based, Escherichia coli
Description: Finally, a fluorescence microscope (EVOS FL Auto, Massachusetts, USA) was used to observe the fluorescence images of the bacteria under different background colors and representative pictures were taken.

E. coli = test: In vivo peritonitis-sepsis model; design: species or system mouse; conditions: 14 h, n = 8
Description: The mice used in the peritonitis‐sepsis model were consistent with those employed in the in vivo toxicity assessment. Twenty‐four mice were randomly divided into three groups after a 3‐day pre‐feeding period. The mice in the control group received intraperitoneal injections of 100 µL of saline, followed by an additional 100 µL of saline 1 h later. The mice in the other two groups were administered intraperitoneal injections of 100 µL of a saline‐diluted E. coli suspension (OD600 = 0.6), and subsequently received either 100 µL of saline (E. coli‐infected group) or 10 mg kg^−1 of N4(N4‐treated group) 1 h later. 14 h post‐infection, the mice were euthanized via ether inhalation anesthesia, and blood samples were collected from the orbital vein for the analysis of inflammatory factors (IL‐1β, IL‐6, TNF‐α, and IL‐10).^[ [71] ^] In addition, peritoneal fluid was aseptically collected via peritoneal lavage with sterile saline. The liver, spleen, and kidneys were harvested, weighed, and homogenized. Homogenized samples were plated on Mueller‐Hinton agar (MHA) solid medium for overnight incubation, and bacterial load was quantified the next day. Sections of the liver, spleen, and kidneys were obtained for histological analysis employing H&E staining. Besides, the spleens were specifically selected for immunofluorescence analysis to assess the expression levels of IL‐10, TNF‐α, CD206, and CD86.

[1] = N4 10 mg kg^−1 i.p., vs infected group, p < 0.05

## N=C(N)NCCC[C@H](NC(=O)[C@@H](CCCNC(=N)N)NC(=O)[C@H](Cc1cccc2ccccc12)NC(=O)[C@H](Cc1cccc2ccccc12)NC(=O)[C@H](Cc1cccc2ccccc12)NC(=O)[C@@H](N)Cc1cccc2ccccc12)C(=O)N[C@@H](CCCNC(=N)N)C(=O)N1CCC[C@H]1C(=O)O (stereo in doubt) [Peptide N4]
S. aureus ATCC 29213
  increase in MIC values after serial passage: remained largely unchanged
E. coli ATCC 25922; 16 × 10^−6 M N4, E. coli ATCC 25922, ImageJ
  red (PI)/green (SYTO 9) fluorescence overlap rate: 79.11%
E. coli ATCC 25922; 256 × 10^−6 M N4, E. coli ATCC 25922, ImageJ
  red (PI)/green (SYTO 9) fluorescence overlap rate: 99.29%
E. coli; E. coli peritonitis-sepsis, N4 10 mg kg^−1 i.p. 1 h after infection, infected group 6.62
  bacterial load, kidney: 5.96 log10 CFU g^−1
E. coli; E. coli peritonitis-sepsis, N4 10 mg kg^−1 i.p. 1 h after infection, infected group 6.87
  bacterial load, liver: 6.07 log10 CFU g^−1
E. coli; E. coli peritonitis-sepsis, N4 10 mg kg^−1 i.p. 1 h after infection, infected group 6.97
  bacterial load, spleen: 6.28 log10 CFU g^−1
E. coli; E. coli peritonitis-sepsis, N4 10 mg kg^−1 i.p. 1 h after infection, infected group 7.48
  bacterial load, peritoneum: 6.37 log10 CFU
E. coli; [1]
  serum levels of anti-inflammatory cytokine IL-10: increased
  serum levels of pro-inflammatory cytokines (IL-1β, IL-6, TNF-α): significant decreased
